ChEMBL document CHEMBL1201862, “PubChem BioAssay data set” (2004)
Calls of active or inactive are those of the source.

Legend:
Prothrombin = Prothrombin (Homo sapiens, UniProt P00734); assay: Thrombin 1536 HTS Dose Response Confirmation. [Related pubchem assays: 1046 (Thrombin 1536 HTS; hits were confirmed in this assay)]; assay type: functional
[1] = target: T1, Calpain-2 catalytic subunit (Sus scrofa, UniProt P43367); assay: pig calpain II inhibitor potency, dose response, biochemical, fluorogenic peptide substrate (AID 1420); assay type: functional
T1 sequence (P43367 whole entry): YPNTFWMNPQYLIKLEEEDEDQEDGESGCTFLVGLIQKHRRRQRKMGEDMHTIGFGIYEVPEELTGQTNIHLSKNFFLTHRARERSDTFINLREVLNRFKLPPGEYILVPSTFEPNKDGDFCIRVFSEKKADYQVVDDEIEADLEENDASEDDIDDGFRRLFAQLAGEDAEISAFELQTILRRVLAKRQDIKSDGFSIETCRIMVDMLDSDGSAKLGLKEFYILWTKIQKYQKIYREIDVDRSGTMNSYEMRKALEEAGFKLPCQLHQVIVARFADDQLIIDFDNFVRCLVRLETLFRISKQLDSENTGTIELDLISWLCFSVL

[2] = target: T2, Mannose-6-phosphate isomerase (Homo sapiens, UniProt P34949); assay: human PMI inhibitors, high substrate, primary screen, biochemical, fluorescence intensity, high mannose 6-phosphate (AID 1220)
T2 sequence (P34949 whole entry): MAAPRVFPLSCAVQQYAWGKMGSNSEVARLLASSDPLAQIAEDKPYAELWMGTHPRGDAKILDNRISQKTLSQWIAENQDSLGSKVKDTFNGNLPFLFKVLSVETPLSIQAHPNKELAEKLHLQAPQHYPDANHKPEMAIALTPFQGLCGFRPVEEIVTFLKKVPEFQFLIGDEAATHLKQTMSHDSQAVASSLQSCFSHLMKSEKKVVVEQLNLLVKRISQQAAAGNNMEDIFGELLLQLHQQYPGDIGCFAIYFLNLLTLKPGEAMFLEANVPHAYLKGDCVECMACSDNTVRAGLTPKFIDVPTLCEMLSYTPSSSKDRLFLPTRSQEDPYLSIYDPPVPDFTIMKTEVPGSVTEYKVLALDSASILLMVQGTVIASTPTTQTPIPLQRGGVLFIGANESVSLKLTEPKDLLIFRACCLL

[3] = target: T3, Histone-lysine N-methyltransferase NSD2 (Homo sapiens, UniProt O96028); assay type: biochemical
T3 sequence (O96028 whole entry): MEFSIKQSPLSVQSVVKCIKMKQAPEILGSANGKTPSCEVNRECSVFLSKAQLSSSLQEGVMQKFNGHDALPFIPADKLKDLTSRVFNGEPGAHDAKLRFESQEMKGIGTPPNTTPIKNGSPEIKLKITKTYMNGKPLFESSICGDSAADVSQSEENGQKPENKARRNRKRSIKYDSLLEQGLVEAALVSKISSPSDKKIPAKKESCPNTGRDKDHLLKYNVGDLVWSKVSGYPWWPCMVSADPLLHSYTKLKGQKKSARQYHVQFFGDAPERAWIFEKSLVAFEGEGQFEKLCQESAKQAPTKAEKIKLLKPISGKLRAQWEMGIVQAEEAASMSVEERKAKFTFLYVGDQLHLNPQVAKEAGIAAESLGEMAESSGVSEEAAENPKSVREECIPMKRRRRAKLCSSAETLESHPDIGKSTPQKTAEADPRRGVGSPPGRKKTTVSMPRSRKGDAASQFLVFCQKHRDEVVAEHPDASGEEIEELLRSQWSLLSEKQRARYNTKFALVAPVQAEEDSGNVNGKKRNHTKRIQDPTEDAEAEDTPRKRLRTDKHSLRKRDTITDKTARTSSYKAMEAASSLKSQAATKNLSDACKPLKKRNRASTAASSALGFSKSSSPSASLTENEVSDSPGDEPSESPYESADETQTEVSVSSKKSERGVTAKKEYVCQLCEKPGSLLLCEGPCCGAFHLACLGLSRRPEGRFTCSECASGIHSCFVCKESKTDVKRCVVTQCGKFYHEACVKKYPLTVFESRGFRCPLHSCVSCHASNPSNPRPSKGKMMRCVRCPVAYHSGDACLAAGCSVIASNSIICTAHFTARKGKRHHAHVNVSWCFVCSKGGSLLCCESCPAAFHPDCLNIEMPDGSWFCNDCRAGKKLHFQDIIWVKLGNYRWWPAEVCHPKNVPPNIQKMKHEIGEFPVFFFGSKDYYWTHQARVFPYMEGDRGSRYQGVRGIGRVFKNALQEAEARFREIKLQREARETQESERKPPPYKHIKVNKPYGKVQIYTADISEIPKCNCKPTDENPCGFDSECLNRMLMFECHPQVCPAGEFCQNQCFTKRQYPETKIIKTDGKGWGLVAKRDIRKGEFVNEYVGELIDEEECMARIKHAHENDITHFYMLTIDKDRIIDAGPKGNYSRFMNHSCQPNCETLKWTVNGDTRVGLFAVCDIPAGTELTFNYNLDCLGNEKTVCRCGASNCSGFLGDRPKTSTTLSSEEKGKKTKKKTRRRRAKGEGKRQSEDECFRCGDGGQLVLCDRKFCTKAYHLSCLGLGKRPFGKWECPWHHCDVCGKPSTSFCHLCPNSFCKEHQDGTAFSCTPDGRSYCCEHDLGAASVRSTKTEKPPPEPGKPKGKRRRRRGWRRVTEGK

[4] = cytotoxicity in HEK-293T cells, dose response, cytotoxicity control for TCR NF-kB inhibitor project, luminescence, T-cell screen hits (AID 489026); assay type: functional, cell-based;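 further: cells exposed to compound about 14 hours before the viability readout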
Protein Wnt-3a = Protein Wnt-3a (Mus musculus, UniProt P27467); assay: Wnt3a-driven reporter signaling inhibition, dose response, selectivity assay for Gli-SUFU antagonist project, Wnt-LIGHT cells, luminescence (AID 651570); assay type: functional; conditions: read-out: IC50_Mean;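 further: Wnt-LIGHT reporter cells stimulated with conditioned medium from Wnt3a-producing cells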
Chain of Protein Wnt-3a (P27467 whole entry, the tested form may be a part): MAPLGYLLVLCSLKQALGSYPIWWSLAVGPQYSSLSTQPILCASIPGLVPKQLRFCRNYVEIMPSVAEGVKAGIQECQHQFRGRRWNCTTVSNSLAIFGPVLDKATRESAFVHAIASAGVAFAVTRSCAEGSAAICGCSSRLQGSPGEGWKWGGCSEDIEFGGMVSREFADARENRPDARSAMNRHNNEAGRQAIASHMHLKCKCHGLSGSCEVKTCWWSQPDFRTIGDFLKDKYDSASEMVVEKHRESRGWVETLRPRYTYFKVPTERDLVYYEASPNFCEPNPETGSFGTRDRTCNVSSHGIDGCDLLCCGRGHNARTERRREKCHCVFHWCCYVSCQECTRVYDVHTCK

[5] = inhibitors of HIV Env-driven cell fusion, dose response, cherry-pick (AID 652057); assay type: functional, cell-based
[6] = off-target signal loss in HeLa-CEM21 co-culture – HeLa F-luc CTL cells, cherry-picked, counter-screen for HIV-1 Env fusion inhibitor project, dose response (AID 652040); assay type: functional, cell-based;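 further: potency for signal decrease marking cytotoxic or nonspecific inhibition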
[7] = inhibitors of clade B AD8 Env fusion, dose response, cell-based, cherry-pick (AID 652062); assay type: functional;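 further: luciferase signal from cell-cell fusion driven by HIV-1 clade B AD8 Env; potency is for inhibitors of fusion seen as a drop in luminescence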
[8] = inhibitors of firefly luciferase expression or activity, dose response, H4 neuroglioma cells, luminescence (AID 1990); assay type: functional, cell-based
[9] = Luminescence Cell-Based Dose Response HTS to Identify Inhibitors of 5'UTR Stem-Loop Driven Prion Protein mRNA Translation in H4 Neuroglioblastoma Cells. [Related pubchem assays: 1827 (Project Summary), 1813 (Primary HTS)]; assay type: functional
[10] = target: T4, Heat shock factor protein 1 (Mus musculus, UniProt P38532); assay: inhibition of MG132-induced HSE-luciferase signal, confirmation, cell-based, NIH3T3, luminescence, dose retest (AID 2382); assay type: functional;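 further: NIH3T3 fibroblasts with HSF1-driven luciferase reporter stressed by proteasome inhibitor MG132; luminescence from HSF1-driven luciferase expression after 8 hours of MG132 stress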
T4 sequence (P38532 whole entry): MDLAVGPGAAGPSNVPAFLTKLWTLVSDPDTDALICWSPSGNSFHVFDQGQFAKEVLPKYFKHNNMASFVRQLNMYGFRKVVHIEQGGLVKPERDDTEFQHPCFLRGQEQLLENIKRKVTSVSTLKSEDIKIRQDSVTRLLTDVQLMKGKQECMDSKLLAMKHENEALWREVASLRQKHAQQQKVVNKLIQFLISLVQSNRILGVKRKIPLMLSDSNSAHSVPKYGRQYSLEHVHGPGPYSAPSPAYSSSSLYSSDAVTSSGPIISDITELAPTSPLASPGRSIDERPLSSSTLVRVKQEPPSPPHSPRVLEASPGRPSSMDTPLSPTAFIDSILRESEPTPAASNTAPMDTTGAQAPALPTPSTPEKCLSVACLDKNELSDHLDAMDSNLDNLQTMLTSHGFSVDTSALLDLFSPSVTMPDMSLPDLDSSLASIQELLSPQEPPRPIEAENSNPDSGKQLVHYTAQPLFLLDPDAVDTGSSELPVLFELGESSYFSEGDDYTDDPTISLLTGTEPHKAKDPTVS

[11] = inhibitors of SNCA 5'UTR-driven reporter translation, confirmation, H4 neuroglioma cells, luminescence (AID 1988); assay type: functional, cell-based
HEK293 = assay: inhibitors of LMP1-driven NF-kB reporter, dose response, cell-based, HEK293, luciferase, cherry-pick (AID 588343); assay type: functional; conditions: Homo sapiens
[12] = ZM109 Env clade C HIV-1 fusion inhibitors, dose response, HeLa effector, CEM target cells, luciferase, cherry-pick (AID 652058); assay type: functional, cell-based
Cytochrome P450 2C19 = Cytochrome P450 2C19 (Homo sapiens, UniProt P33261); assay: Cytochrome panel assay with activity outcomes. Panel member name: p450-cyp2c19 Compounds with AC50 equal or less than 10 uM are considered active; assay type: functional; conditions: read-out: AC50
Chain of Cytochrome P450 2C19 (P33261 whole entry): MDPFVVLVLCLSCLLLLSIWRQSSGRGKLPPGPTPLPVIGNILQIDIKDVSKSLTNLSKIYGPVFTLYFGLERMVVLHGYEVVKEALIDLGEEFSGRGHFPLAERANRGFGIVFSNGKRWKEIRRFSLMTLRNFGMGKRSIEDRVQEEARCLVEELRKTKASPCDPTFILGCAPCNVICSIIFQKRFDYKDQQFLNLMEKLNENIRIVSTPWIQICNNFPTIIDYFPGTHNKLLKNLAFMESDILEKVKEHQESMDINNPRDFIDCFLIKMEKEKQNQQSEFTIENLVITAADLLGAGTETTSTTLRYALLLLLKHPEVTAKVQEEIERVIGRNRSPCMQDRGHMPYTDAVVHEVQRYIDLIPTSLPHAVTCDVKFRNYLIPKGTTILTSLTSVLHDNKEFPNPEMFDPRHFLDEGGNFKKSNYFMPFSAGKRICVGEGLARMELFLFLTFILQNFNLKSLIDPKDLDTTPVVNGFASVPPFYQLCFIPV

Cytochrome P450 2C9 = Cytochrome P450 2C9 (Homo sapiens, UniProt P11712)
Chain of Cytochrome P450 2C9 (P11712 whole entry): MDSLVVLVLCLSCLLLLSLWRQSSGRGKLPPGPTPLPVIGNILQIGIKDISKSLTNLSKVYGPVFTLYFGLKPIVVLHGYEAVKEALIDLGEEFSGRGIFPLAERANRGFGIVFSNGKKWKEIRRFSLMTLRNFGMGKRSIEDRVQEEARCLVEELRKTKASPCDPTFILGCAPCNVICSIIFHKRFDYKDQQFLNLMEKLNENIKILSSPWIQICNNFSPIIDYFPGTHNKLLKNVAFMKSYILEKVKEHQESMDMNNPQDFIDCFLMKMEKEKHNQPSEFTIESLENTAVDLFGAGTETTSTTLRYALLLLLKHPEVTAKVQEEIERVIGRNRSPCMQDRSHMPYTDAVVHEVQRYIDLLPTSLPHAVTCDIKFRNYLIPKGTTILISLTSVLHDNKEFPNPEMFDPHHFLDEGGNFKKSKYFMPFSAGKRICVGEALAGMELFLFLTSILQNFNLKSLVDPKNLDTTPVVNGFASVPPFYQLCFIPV

Leucine aminopeptidase = target: T5, Leucine aminopeptidase (Plasmodium falciparum 3D7, UniProt Q8IL11); assay: P. falciparum M17LAP inhibitors, primary screen, biochemical, fluorogenic H-Leu-NHMec substrate, 1536-well (AID 1619); assay type: functional
T5 sequence (Q8IL11 whole entry): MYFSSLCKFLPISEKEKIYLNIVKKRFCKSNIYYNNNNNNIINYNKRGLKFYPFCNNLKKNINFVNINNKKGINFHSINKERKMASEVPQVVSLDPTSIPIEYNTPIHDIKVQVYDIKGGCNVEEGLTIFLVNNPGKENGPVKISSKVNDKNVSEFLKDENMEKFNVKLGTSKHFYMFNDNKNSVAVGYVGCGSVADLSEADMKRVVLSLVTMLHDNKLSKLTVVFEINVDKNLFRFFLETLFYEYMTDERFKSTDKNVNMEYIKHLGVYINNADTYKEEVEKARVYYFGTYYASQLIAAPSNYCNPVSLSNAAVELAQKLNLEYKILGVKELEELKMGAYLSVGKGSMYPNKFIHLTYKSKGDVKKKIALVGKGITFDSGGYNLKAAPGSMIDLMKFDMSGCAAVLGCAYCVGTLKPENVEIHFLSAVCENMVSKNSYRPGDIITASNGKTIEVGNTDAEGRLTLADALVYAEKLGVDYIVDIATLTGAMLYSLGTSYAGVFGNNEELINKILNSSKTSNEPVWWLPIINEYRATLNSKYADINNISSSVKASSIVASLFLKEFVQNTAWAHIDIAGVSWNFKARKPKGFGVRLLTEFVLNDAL

## CC(C)c1ccc(-c2noc(C3CCCN(C(=O)c4ccc(F)cc4F)C3)n2)cc1 (stereo not drawn)
Prothrombin
  IC50: > 50 µM (not active)
[1]
  IC50: 9.51 µM (not active)

## CC(=O)n1nc(-c2ccccc2)nc1NCc1ccc(N(C)C)cc1
Prothrombin
  IC50: 3.39 µM (active)

## Cc1ccc(NC(=O)CN(C)C(=O)CCC(=O)c2cccs2)cc1
Prothrombin
  IC50: > 50 µM (not active)

## Cn1cc2ccc(N)cc2n1
[2]
  IC50: > 50 µM (not active)
[3]
  AC50: 3.81 µM (active)

## Cc1nc2ccccc2c2c1CC(C(C)(Cl)Br)O2 (stereo not drawn)
[4]
  IC50: > 80 µM (inactive)
Protein Wnt-3a
  IC50: 3.82 µM (active)
[5]
  AC50: 27.6 µM (active)
[6]
  AC50: > 70 µM (inactive)
[7]
  AC50: 1.8 µM (active)

## CSc1nc(-c2ccco2)nn1C(=O)CCc1ccccc1
Prothrombin
  IC50: 0.00551 µM (active)

## O=C(CN1C(=O)CSc2ccccc21)N1CCc2ccccc21
Prothrombin
  IC50: > 50 µM (not active)

## COc1cccc(C(=O)NNC(=O)Cc2ccc([N+](=O)[O-])cc2)c1
Prothrombin
  IC50: > 50 µM (not active)

## NC(=O)c1sc2nc3c(c(-c4cccs4)c2c1N)CCCCC3
[8]
  EC50: 16.5 µM (active)
[9]
  EC50: 9.4 µM (active)
[10]
  EC50: 0.285 µM (active)
[11]
  EC50: 11.1 µM (active)
HEK293
  AC50: 2.27 µM (active)
[5]
  AC50: 0.743 µM (active)
[12]
  AC50: < 0.26 µM (active)
[6]
  AC50: 1.67 µM (active)
[7]
  AC50: 1.43 µM (active)

## CC(=O)n1nc(-c2ccccc2)nc1NCc1cccs1
Prothrombin
  IC50: 0.0965 µM (active)

## Cc1n[nH]c(C)c1S(=O)(=O)N(CC(=O)NC1CCCC1)c1ccc(C(C)C)cc1
[5]
  AC50: 3.91 µM (active)
[12]
  AC50: 2.38 µM (active)
[6]
  AC50: 6.27 µM (active)
[7]
  AC50: 3.53 µM (active)

## O=C(c1ccc([N+](=O)[O-])cc1)n1nc(-c2ccccc2)nc1NCc1ccccc1
Prothrombin
  IC50: 0.0293 µM (active)
Cytochrome P450 2C19
  AC50: 1.58 µM (inconclusive)
Cytochrome P450 2C9
  AC50: 0.631 µM (inconclusive)

## CCCCn1c(N)c(N(CC(C)C)C(=O)c2ccc(S(=O)(=O)N(CC)c3ccccc3)cc2)c(=O)[nH]c1=O
[5]
  AC50: 0.402 µM (active)
[12]
  AC50: < 0.26 µM (active)
[6]
  AC50: 0.877 µM (active)
[7]
  AC50: 2.78 µM (active)

## COC(=O)[C@@]1(C)[C@H]2C(=O)N(Cc3ccccc3)C(=O)[C@H]2[C@H]2CN=C(SCc3ccc(Cl)cc3)N21
HEK293
  AC50: 4.73 µM (active)
[5]
  AC50: 0.876 µM (active)
[12]
  AC50: 0.891 µM (active)
[6]
  AC50: 1.04 µM (active)
[7]
  AC50: 0.796 µM (active)

## COc1cccc(/C=N/NC(=O)CC2C(=O)NN=C2C)c1O (stereo not drawn)
Leucine aminopeptidase
  IC50: 92.1 µM (active)
[5]
  AC50: 49.9 µM (active)
[6]
  AC50: > 70 µM (inactive)
